Key:
[1] = target: Activin receptor type-1B (Homo sapiens) (UniProt P36896)
[2] = target: AarF domain-containing protein kinase 1 (Homo sapiens) (UniProt Q86TW2)
[3] = target: Neuroblast differentiation-associated protein AHNAK (Homo sapiens) (UniProt Q09666)
[4] = target: RAC-alpha serine/threonine-protein kinase (Homo sapiens) (UniProt P31749)
[5] = target: Aldehyde dehydrogenase X, mitochondrial (Homo sapiens) (UniProt P30837)
[6] = target: AP-2 complex subunit alpha-1 (Homo sapiens) (UniProt O95782)
AP-2 complex subunit alpha-1 (Homo sapiens), sequence (O95782 whole entry, one chain of several): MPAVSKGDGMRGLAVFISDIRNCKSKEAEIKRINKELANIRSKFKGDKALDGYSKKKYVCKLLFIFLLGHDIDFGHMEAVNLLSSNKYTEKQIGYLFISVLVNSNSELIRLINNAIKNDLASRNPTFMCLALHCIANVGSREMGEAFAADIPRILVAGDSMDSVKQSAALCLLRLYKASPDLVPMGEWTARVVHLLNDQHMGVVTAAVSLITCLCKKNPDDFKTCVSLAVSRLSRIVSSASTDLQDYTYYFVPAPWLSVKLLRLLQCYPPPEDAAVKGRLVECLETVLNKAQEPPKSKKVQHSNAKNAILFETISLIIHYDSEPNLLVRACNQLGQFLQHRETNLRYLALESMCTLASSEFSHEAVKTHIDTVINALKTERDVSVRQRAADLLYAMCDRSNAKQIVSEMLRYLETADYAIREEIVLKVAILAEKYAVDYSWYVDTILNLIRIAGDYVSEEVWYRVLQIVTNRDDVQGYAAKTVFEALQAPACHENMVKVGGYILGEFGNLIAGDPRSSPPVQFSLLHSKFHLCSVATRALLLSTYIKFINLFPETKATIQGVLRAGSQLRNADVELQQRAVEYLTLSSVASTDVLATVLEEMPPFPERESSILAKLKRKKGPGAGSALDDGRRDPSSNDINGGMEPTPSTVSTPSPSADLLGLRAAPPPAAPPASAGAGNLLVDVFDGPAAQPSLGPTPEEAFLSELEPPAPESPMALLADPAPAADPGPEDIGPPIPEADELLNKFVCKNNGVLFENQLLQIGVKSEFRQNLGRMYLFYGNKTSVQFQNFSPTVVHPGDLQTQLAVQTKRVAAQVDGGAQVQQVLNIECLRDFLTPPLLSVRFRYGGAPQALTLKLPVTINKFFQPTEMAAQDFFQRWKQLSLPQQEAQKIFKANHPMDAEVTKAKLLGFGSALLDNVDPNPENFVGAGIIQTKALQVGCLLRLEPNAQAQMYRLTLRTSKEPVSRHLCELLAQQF

[7] = target: ATP synthase F(1) complex subunit gamma, mitochondrial (Homo sapiens) (UniProt P36542)
[8] = target: Serine/threonine-protein kinase ATR (Homo sapiens) (UniProt Q13535)
[9] = target: Bromodomain adjacent to zinc finger domain protein 1A (Homo sapiens) (UniProt Q9NRL2)
[10] = target: BMP-2-inducible protein kinase (Homo sapiens) (UniProt Q9NSY1)
[11] = target: Casein kinase II subunit alpha' (Homo sapiens) (UniProt P19784)
[12] = target: Ferrochelatase, mitochondrial (Homo sapiens) (UniProt P22830)
[13] = target: Tyrosine-protein kinase Fyn (Homo sapiens) (UniProt P06241)
[14] = target: Glia maturation factor gamma (Homo sapiens) (UniProt O60234)
Glia maturation factor gamma (Homo sapiens), sequence (O60234 whole entry): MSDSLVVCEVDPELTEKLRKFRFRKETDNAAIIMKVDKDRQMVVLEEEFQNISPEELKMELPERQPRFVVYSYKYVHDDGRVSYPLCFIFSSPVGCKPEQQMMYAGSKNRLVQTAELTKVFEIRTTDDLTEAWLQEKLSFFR

[15] = target: Glutathione S-transferase omega-1 (Homo sapiens) (UniProt P78417)
Glutathione S-transferase omega-1 (Homo sapiens), sequence (P78417 whole entry): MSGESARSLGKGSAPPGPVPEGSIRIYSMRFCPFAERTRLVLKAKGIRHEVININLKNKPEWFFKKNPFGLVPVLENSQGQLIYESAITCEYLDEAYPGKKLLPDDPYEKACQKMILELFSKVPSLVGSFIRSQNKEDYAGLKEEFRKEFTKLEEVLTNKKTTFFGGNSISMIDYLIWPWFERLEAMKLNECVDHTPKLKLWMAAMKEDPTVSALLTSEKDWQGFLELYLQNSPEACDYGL

[16] = target: General transcription factor II-I (Homo sapiens) (UniProt P78347)
[17] = target: Hematopoietic lineage cell-specific protein (Homo sapiens) (UniProt P14317)
[18] = target: Heterogeneous nuclear ribonucleoprotein F (Homo sapiens) (UniProt P52597)
[19] = target: Scaffold protein ILK (Homo sapiens) (UniProt Q13418)
[20] = target: MICOS complex subunit MIC60 (Homo sapiens) (UniProt Q16891)
[21] = target: Far upstream element-binding protein 2 (Homo sapiens) (UniProt Q92945)
[22] = target: Lipopolysaccharide-responsive and beige-like anchor protein (Homo sapiens) (UniProt P50851)
[23] = target: Hepatocyte growth factor receptor (Homo sapiens) (UniProt P08581)
[24] = target: Unconventional myosin-If (Homo sapiens) (UniProt O00160)
[25] = target: ADP-sugar pyrophosphatase (Homo sapiens) (UniProt Q9UKK9)
[26] = target: Ubiquitin thioesterase OTUB1 (Homo sapiens) (UniProt Q96FW1)
[27] = target: Ran-specific GTPase-activating protein (Homo sapiens) (UniProt P43487)
[28] = target: Receptor-interacting serine/threonine-protein kinase 2 (Homo sapiens) (UniProt O43353)
Receptor-interacting serine/threonine-protein kinase 2 (Homo sapiens), sequence (O43353 whole entry): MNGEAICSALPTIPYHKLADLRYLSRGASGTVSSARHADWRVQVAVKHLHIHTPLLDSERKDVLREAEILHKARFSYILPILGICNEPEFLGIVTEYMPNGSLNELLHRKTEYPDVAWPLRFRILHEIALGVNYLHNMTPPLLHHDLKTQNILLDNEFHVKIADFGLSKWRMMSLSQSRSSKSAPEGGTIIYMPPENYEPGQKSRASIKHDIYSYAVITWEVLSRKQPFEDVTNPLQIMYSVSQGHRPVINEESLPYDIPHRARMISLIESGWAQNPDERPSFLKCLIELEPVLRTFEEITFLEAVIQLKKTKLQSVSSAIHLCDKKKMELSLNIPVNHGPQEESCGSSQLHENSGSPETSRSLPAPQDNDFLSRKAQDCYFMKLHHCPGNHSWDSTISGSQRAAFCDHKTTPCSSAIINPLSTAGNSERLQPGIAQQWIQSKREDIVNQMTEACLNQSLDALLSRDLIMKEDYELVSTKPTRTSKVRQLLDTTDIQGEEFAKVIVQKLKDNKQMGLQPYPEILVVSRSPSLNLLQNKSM

[29] = target: Rho-associated protein kinase 2 (Homo sapiens) (UniProt O75116)
[30] = target: Large ribosomal subunit protein eL14 (Homo sapiens) (UniProt P50914)
[31] = target: RuvB-like 2 (Homo sapiens) (UniProt Q9Y230)
[32] = target: Protein transport protein Sec16A (Homo sapiens) (UniProt O15027)
[33] = target: Large neutral amino acids transporter small subunit 1 (Homo sapiens) (UniProt Q01650)
Large neutral amino acids transporter small subunit 1 (Homo sapiens), sequence (Q01650 whole entry): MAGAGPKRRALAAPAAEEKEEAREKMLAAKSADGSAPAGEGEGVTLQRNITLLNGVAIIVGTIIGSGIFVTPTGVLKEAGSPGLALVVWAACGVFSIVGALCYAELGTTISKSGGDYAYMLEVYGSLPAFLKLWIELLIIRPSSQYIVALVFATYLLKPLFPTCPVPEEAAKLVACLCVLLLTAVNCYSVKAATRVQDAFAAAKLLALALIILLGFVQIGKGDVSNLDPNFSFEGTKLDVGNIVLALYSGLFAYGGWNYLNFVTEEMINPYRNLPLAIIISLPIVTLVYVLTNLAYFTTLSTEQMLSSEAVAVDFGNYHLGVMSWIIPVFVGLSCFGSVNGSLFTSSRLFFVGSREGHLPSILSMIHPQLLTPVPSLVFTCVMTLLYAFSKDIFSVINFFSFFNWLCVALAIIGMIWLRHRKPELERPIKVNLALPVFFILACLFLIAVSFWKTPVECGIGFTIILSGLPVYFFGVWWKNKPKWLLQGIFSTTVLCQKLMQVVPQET

[34] = target: SWI/SNF complex subunit SMARCC2 (Homo sapiens) (UniProt Q8TAQ2)
[35] = target: U5 small nuclear ribonucleoprotein 200 kDa helicase (Homo sapiens) (UniProt O75643)
U5 small nuclear ribonucleoprotein 200 kDa helicase (Homo sapiens), sequence (O75643 whole entry): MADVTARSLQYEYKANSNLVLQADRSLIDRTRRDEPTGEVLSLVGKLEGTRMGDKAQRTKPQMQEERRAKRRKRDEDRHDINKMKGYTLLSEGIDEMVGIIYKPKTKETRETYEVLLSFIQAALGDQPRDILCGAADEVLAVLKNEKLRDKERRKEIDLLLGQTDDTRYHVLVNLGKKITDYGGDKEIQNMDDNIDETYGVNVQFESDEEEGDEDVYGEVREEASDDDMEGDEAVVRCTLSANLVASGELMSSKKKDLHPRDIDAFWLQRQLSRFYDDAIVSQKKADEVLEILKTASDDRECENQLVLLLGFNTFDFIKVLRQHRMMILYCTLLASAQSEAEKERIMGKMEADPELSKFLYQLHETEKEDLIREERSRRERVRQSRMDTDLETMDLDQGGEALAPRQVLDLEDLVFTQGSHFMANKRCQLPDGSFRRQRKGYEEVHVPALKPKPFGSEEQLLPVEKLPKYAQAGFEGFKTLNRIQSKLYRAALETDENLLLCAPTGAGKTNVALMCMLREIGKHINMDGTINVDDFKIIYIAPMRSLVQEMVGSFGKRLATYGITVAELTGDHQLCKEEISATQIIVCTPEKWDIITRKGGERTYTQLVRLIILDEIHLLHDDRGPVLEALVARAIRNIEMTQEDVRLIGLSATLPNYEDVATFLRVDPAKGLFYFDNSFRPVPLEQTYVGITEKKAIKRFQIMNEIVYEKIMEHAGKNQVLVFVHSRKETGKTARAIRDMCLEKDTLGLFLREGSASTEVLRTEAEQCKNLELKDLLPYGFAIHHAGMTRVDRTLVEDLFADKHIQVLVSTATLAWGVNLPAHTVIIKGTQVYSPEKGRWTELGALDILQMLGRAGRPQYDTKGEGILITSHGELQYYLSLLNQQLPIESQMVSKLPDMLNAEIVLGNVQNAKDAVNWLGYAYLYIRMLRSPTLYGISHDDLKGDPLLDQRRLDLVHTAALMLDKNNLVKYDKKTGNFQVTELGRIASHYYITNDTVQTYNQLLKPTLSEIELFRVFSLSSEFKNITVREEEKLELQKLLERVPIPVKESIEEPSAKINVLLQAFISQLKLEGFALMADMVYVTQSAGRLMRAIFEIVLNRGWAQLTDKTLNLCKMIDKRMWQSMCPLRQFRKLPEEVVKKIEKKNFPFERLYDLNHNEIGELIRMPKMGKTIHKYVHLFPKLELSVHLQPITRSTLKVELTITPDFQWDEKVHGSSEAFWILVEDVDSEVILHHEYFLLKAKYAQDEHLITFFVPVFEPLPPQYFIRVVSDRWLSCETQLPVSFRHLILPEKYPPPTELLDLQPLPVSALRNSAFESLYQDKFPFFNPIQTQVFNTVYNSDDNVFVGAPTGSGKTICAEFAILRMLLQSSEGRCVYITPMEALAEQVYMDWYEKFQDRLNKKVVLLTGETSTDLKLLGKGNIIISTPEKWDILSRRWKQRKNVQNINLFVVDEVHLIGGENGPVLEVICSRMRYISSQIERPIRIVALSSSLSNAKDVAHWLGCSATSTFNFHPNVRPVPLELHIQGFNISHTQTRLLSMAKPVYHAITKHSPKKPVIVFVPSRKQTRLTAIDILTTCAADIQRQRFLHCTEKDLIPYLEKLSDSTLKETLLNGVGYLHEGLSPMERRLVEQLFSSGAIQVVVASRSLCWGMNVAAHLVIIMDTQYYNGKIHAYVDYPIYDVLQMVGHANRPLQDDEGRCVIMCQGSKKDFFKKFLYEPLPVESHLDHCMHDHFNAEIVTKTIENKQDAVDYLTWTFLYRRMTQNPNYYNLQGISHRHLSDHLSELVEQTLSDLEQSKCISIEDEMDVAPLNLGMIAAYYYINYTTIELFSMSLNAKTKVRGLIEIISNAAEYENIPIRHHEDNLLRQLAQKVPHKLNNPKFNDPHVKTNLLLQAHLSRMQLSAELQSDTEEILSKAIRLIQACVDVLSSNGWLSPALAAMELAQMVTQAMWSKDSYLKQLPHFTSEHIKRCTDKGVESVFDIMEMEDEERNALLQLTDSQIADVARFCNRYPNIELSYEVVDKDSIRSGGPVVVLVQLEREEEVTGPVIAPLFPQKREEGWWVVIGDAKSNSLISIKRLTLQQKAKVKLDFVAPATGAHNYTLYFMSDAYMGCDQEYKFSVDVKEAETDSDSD

[36] = target: Signal recognition particle 14 kDa protein (Homo sapiens) (UniProt P37108)
[37] = target: Tubulin-specific chaperone D (Homo sapiens) (UniProt Q9BTW9)
[38] = target: Protein THEM6 (Homo sapiens) (UniProt Q8WUY1)
[39] = target: Transmembrane protein 161A (Homo sapiens) (UniProt Q9NX61)
[40] = target: Activated CDC42 kinase 1 (Homo sapiens) (UniProt Q07912)
[41] = target: E3 ubiquitin/ISG15 ligase TRIM25 (Homo sapiens) (UniProt Q14258)
[42] = target: Tetratricopeptide repeat protein 14 (Homo sapiens) (UniProt Q96N46)
[43] = target: Serine/threonine-protein kinase ULK3 (Homo sapiens) (UniProt Q6PHR2)
[44] = target: X-ray repair cross-complementing protein 5 (Homo sapiens) (UniProt P13010)
[45] = target: Zinc finger CCCH domain-containing protein 11A (Homo sapiens) (UniProt O75152)
Note: assay method not described here.

Activin receptor type-1B (Homo sapiens), sequence (P36896 whole entry, the tested form may be a part): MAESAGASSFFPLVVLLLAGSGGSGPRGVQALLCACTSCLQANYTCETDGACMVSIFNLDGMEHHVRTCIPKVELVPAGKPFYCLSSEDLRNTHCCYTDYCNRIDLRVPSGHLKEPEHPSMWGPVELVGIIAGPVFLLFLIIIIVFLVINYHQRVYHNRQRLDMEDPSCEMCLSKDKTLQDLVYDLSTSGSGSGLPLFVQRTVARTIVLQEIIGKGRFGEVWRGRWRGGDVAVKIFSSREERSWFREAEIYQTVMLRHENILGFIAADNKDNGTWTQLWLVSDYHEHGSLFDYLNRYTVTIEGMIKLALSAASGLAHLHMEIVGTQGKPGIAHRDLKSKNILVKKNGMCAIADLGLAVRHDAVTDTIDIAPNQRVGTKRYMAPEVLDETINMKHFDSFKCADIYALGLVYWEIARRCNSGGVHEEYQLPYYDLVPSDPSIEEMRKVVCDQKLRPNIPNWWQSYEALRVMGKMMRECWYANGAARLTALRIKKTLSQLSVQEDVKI

Structure (SMILES): Cc1ccc(C(=O)Nc2cccc(C(F)(F)F)c2)cc1Nc1nc(-c2cccnc2)nc2nn(C)cc12
- ED50 [1]: 0.0591 µM
- ED50 [2]: 0.0933 µM
- ED50 [3]: 0.11 µM
- ED50 [4]: 0.216 µM
- ED50 [5]: 0.0072 µM
- ED50 [6]: 4.78 µM
- ED50 [7]: 2.43 µM
- ED50 [8]: 0.0106 µM
- ED50 [9]: 0.0186 µM
- ED50 [10]: 0.11 µM
- ED50 [11]: 110 µM
- ED50 [12]: 8.18 µM
- ED50 [13]: 2.07 µM
- ED50 [14]: 0.00291 µM
- ED50 [15]: 0.0945 µM
- ED50 [16]: 0.0945 µM
- ED50 [17]: 3210 µM
- ED50 [18]: 0.349 µM
- ED50 [19]: 67.3 µM
- ED50 [20]: 0.00743 µM
- ED50 [21]: 4.03 µM
- ED50 [22]: 0.167 µM
- ED50 [23]: 523 µM
- ED50 [24]: 0.105 µM
- ED50 (Homo sapiens): 0.217 µM
- ED50 [25]: 7.98 µM
- ED50 [26]: 0.655 µM
- ED50 [27]: 8.14 µM
- ED50 [28]: 0.073 µM
- ED50 [29]: 0.432 µM
- ED50 [30]: 7.31 µM
- ED50 [31]: 0.0478 µM
- ED50 [32]: 0.0052 µM
- ED50 [33]: 1.19 µM
- ED50 [34]: 0.0058 µM
- ED50 [35]: 0.539 µM
- ED50 [36]: 3.59 µM
- ED50 [37]: 0.00542 µM
- ED50 [38]: 0.0621 µM
- ED50 [39]: 0.434 µM
- ED50 [40]: 10.3 µM
- ED50 [41]: 0.0528 µM
- ED50 [42]: 2.32 µM
- ED50 [43]: 0.0784 µM
- ED50 [44]: 10.3 µM
- ED50 [45]: 3.88 µM

Structure (SMILES): Cc1ccc(C(=O)Nc2cccc(C(F)(F)F)c2)cc1Nc1nc(-c2cccnc2)nc2c1cnn2C
- ED50 [1]: 0.177 µM
- ED50 [2]: 3.78 µM
- ED50 [3]: 4.79 µM
- ED50 [4]: 33.2 µM
- ED50 [5]: 0.00943 µM
- ED50 [6]: 0.217 µM
- ED50 [7]: 3.13 µM
- ED50 [8]: 4.47 µM
- ED50 [9]: 0.532 µM
- ED50 [10]: 0.0018 µM
- ED50 [11]: 3.31 µM
- ED50 [12]: 2.92 µM
- ED50 [13]: 4.1 µM
- ED50 [14]: 70.9 µM
- ED50 [15]: 4.06 µM
- ED50 [16]: 2.77 µM
- ED50 [17]: 0.0299 µM
- ED50 [18]: 22.6 µM
- ED50 [19]: 57.4 µM
- ED50 [20]: 5.75 µM
- ED50 [21]: 1.03 µM
- ED50 [22]: 982 µM
- ED50 [23]: 1.75 µM
- ED50 [24]: 4.43 µM
- ED50 (Homo sapiens): 0.878 µM
- ED50 [25]: 3.76 µM
- ED50 [26]: 3.76 µM
- ED50 [27]: 3.63 µM
- ED50 [28]: 29.5 µM
- ED50 [29]: 0.0201 µM
- ED50 [30]: 0.187 µM
- ED50 [31]: 5000 µM
- ED50 [32]: 0.00675 µM
- ED50 [33]: 2.22 µM
- ED50 [34]: 21.8 µM
- ED50 [35]: 6.15 µM
- ED50 [36]: 20.3 µM
- ED50 [37]: 0.00459 µM
- ED50 [38]: 1.7 µM
- ED50 [39]: 0.044 µM
- ED50 [40]: 2.19 µM
- ED50 [41]: 401 µM
- ED50 [42]: 1.9 µM
- ED50 [43]: 3.54 µM
- ED50 [44]: 0.0264 µM
- ED50 [45]: 0.149 µM

Source: ChEMBL document CHEMBL5649169 (ChemMedChem, 2018)
